From PMC4650734, “FV-162 is a novel, orally bioavailable, irreversible proteasome inhibitor with improved pharmacokinetics displaying preclinical efficacy with continuous daily dosing” (Cell Death & Disease, 2015)

How the values were obtained:
patients = conditions: cited from earlier work
T-L subunit activity = assay: T-L proteasome activity in RBCs of treated mice; assay type: in vivo, mouse; conditions: FV-162 30 mg/ml as printed in Figure 5e legend
NOD/SCID mice = assay: Dose tolerance studies / MTD in mice; conditions: 30 mg/kg daily by oral gavage, up to 8 days, NOD/SCID mice
Description: NOD/SCID mice were administered FV-162 (30 mg/kg daily, 7 days/week) in a 5% DMSO, 20% Cremophor vehicle by oral gavage or ONX-0912 (30 mg/kg daily, 7 days/week) in a 5% DMSO, 20% Cremophor vehicle by oral gavage for a week. Mice were monitored for changes in body weight, behavior, and physical appearance.

CT-L proteasome subunit = assay: CT-L proteasome activity in whole cell lysates of human myeloma cell lines (Suc-Leu-Leu-Val-Tyr-AMC); assay type: biochemical
Description: Cells were harvested by centrifugation at 1200 r.p.m. at room temperature. Cell pellets were washed with PBS and lysed with assay lysis buffer (50 mM HEPES (2-[4-(2-hydroxyethyl) piperazin-1-yl]ethanesulfonic acid)), pH 7.5; 150 mM NaCl; 1% Triton X-100; 2 mM ATP). Cell lysates were incubated on ice for 30 min, mixed by vortex every 5 min, and centrifuged at 12 000 × g for 10 min. Supernatants were transferred to a 96-well plate in triplicate. For each assay, 10 μg of total protein were incubated for 1 h at 37 °C with increasing concentrations (0.001–10 μM) of test compound or vehicle control diluted in assay buffer (50 mM Tris-HCl (tris(hydroxymethyl)aminomethane-HCl), pH 7.5; 150 mM NaCl). After incubation, a specific fluorogenic proteasome substrate was added to each assay reaction (40 μM in a total volume of 100 μl). […] The excitation wavelength was 360 nm and the fluorescence emission of free AMC released during the enzymatic reaction was detected at 460 nm on a SpectraMax M5 fluorescent spectrophotometric plate reader (Molecular Devices, Sunnyvale, CA, USA). AMC release rate was measured at 37 °C in a kinetic mode, recording every 5 min for 30 min.

COC[C@H](NC(=O)c1cnc(C)s1)C(=O)N[C@@H](COC)C(=O)N[C@@H](Cc1ccccc1)C(=O)[C@@]1(C)CO1 [ONX-0912, reference compound]
MTD (not reached at cumulative doses up to) (patients; administered twice daily): > 190 mg/day
MTD (patients; once-daily oral, patients with advanced refractory or recurrent solid tumors): 150 mg/day

Cc1ncc(C(=O)N[C@@H](COC(F)F)C(=O)N[C@@H](COC(F)F)C(=O)N[C@@H](Cc2ccccc2)C(=O)[C@@]2(C)CO2)s1 [FV-162]
inhibition of T-L subunit activity in murine RBCs (T-L subunit activity): did not inhibit
toxicity, behavior and body weight on daily dosing (NOD/SCID mice): no evidence of toxicity, behavioral change, or loss of body weight
potency in CT-L inhibition relative to ONX-0912 (CT-L proteasome subunit; in 6 of the 10 cell lines): over five times more potent than ONX-0912
IC50 (CT-L proteasome subunit; total cell lysates, all 10 human myeloma cell lines tested): < 60 nM
